Data from patent US10640497B2, “Microbiocidal oxadiazole derivatives” (SYNGENTA PARTICIPATIONS AG, priority 2015, dated 2020).

What was measured:
[1] = test system: Glomerella lagenarium (Colletotrichum lagenarium); experiment: Fungicidal activity against Glomerella lagenarium (Colletotrichum lagenarium), liquid culture, cucumber, preventative (anthracnose); type: cell-based; conditions: Colletotrichum orbiculare, liquid culture (PDB), growth inhibition measured photometrically 3-4 days after application, compared to untreated control
How it was run: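 Glomerella lagenarium conidia in potato dextrose broth were exposed in 96-well plates to test compound diluted from DMSO stock with 0.025% Tween20 and incubated at 24 °C. Growth inhibition was read photometrically 3–4 days after application, as percent activity relative to untreated check.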

Phakopsora pachyrhizi = experiment: Fungicidal activity against Phakopsora pachyrhizi, soybean, leaf disc preventative (Asian soybean rust); type: in vivo; conditions: foliar, 288 h, 12-14 days after application, compared to untreated control
How it was run: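 Soybean leaf discs on water agar were sprayed with compound diluted in water, then inoculated one day later with a spore suspension on the lower leaf surface. After 24-36 h dark at 20 °C, 75% rh, discs were held at 20 °C, 12 h light/day. Percent disease control versus untreated assessed 12-14 days post-application.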

[2] = test system: Puccinia recondita f. sp. tritici; experiment: Fungicidal activity against Puccinia recondita f. sp. tritici, wheat, leaf disc curative (brown rust); type: in vivo; conditions: foliar, 144 h, wheat leaf segments, curative (applied 1 day after inoculation), 6-8 days after application, compared to untreated control
How it was run: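 Wheat cv. Kanzler leaf segments on agar, inoculated with brown rust spores and kept dark at 19 °C, 75% rh; formulated compound sprayed 1 day after inoculation (curative). Incubated 19 °C, 75% rh, 12 h light/dark; percent disease control vs untreated scored 6–8 days after application.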

[3] = test system: Puccinia recondita f. sp. tritici; experiment: Fungicidal activity against Puccinia recondita f. sp. tritici, wheat, leaf disc preventative (brown rust); type: in vivo; conditions: foliar, wheat leaf segments, preventative (inoculated 1 day after application), 7-9 days after application, compared to untreated control
How it was run: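 Wheat cv. Kanzler leaf segments on water agar sprayed with compound (DMSO stock diluted in water), then inoculated with spore suspension 1 day later. Incubated at 19 °C, 75% rh, 12 h light/12 h dark; percent disease control versus untreated scored at 7-9 days after application.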

Structure (SMILES) | melting point [°C] | inhibition of growth at 20 ppm [1] [%] | pest or weed control at 200 ppm (Phakopsora pachyrhizi) [%] | pest or weed control at 200 ppm [2] [%] | pest or weed control at 200 ppm [3] [%]
CN(C)C(=O)N1CCN(Cc2ccc(-c3noc(C(F)(F)F)n3)cc2)C(=O)C1 [Compound A-34, N,N-dimethyl-3-oxo-4-[[4-[5-(trifluoromethyl)-1,2,4-oxadiazol-3-yl]phenyl]methyl]piperazine-1-carboxamide] | 111 to 114 | ≥ 80 | ≥ 80 | ≥ 80 | ≥ 80
CS(=O)(=O)N1CCN(Cc2ccc(-c3noc(C(F)(F)F)n3)cc2)C(=O)C1 [Compound A-41, 4-methylsulfonyl-1-[[4-[5-(trifluoromethyl)-1,2,4-oxadiazol-3-yl]phenyl]methyl]piperazin-2-one] | 155 to 160 | ≥ 80 | ≥ 80 | ≥ 80 | ≥ 80
O=C1CCCC(=O)N1Cc1ccc(-c2noc(C(F)(F)F)n2)cc1 [Compound A-49, 1-[[4-[5-(trifluoromethyl)-1,2,4-oxadiazol-3-yl]phenyl]methyl]piperidine-2,6-dione] | 104 to 108 | ≥ 80 | ≥ 80 | ≥ 80 | ≥ 80
O=C1CCC(=O)N1Cc1ccc(-c2noc(C(F)(F)F)n2)cc1 [Compound A-51, 1-[[4-[5-(trifluoromethyl)-1,2,4-oxadiazol-3-yl]phenyl]methyl]pyrrolidine-2,5-dione] | 113 to 117 | ≥ 80 | ≥ 80 | ≥ 80 | ≥ 80
CC1(C)CCCN(Cc2ccc(-c3noc(C(F)(F)F)n3)c(F)c2)C1=O [Compound A-54, 1-[[3-fluoro-4-[5-(trifluoromethyl)-1,2,4-oxadiazol-3-yl]phenyl]methyl]-3,3-dimethyl-piperidin-2-one] | 69 to 73 | ≥ 80 | ≥ 80 | ≥ 80 | ≥ 80
CC(=O)N1CC(=O)N(Cc2ccc(-c3noc(C(F)(F)F)n3)cc2)C(=O)C1 [Compound A-55, 4-acetyl-1-[[4-[5-(trifluoromethyl)-1,2,4-oxadiazol-3-yl]phenyl]methyl]piperazine-2,6-dione] | 111 to 114 | ≥ 80 | ≥ 80 | ≥ 80 | ≥ 80
CN(C)C(=O)N1CC(=O)N(Cc2ccc(-c3noc(C(F)(F)F)n3)cc2)C(=O)C1 [Compound A-56, N,N-dimethyl-3,5-dioxo-4-[[4-[5-(trifluoromethyl)-1,2,4-oxadiazol-3-yl]phenyl]methyl]piperazine-1-carboxamide] | 138 to 141 | ≥ 80 | ≥ 80 | ≥ 80 | ≥ 80
O=C1CCON1Cc1ccc(-c2noc(C(F)(F)F)n2)c(F)c1 [Compound A-68, 2-[[3-fluoro-4-[5-(trifluoromethyl)-1,2,4-oxadiazol-3-yl]phenyl]methyl]isoxazolidin-3-one] | 86 to 89 | ≥ 80 | ≥ 80 | ≥ 80 | ≥ 80

More lines, main results first:

melting point [°C] | Structure (SMILES) | inhibition of growth at 20 ppm [1] [%] | pest or weed control at 200 ppm (Phakopsora pachyrhizi) [%] | pest or weed control at 200 ppm [2] [%] | pest or weed control at 200 ppm [3] [%]
69 to 73 | O=S1(=O)CCCN1Cc1ccc(-c2noc(C(F)(F)F)n2)cc1 [Compound B-1, 2-[[4-[5-(trifluoromethyl)-1,2,4-oxadiazol-3-yl]phenyl]methyl]-1,2-thiazolidine 1,1-dioxide] | ≥ 80 | ≥ 80 | ≥ 80 | ≥ 80
151 to 153 | O=C1CCCN1c1ccc(-c2noc(C(F)(F)F)n2)cc1 [Compound C-1, 1-[4-[5-(trifluoromethyl)-1,2,4-oxadiazol-3-yl]phenyl]pyrrolidin-2-one] | ≥ 80 | ≥ 80 | ≥ 80 | ≥ 80
74 to 77 | O=C1CCON1c1ccc(-c2noc(C(F)(F)F)n2)cc1 [Compound C-2, 2-[4-[5-(trifluoromethyl)-1,2,4-oxadiazol-3-yl]phenyl]isoxazolidin-3-one] | ≥ 80 | ≥ 80 | ≥ 80 | ≥ 80
